Experimental data as given in ChEMBL document CHEMBL5131467, “Multivalent peptide dendrimers inhibit the fusion of viral-cellular membranes and the cellular NF-κB signaling pathway” (Eur J Med Chem, 2022).
pIC50: −log10 of the molar value. Where a SMILES comes first, the peptide text is derived from it. Bridges are numbered along the chain shown (N, C = ends). Roman numbers before positions name the chains, in order. Side-chain parts run from the residue outwards. The star is where a group is joined. Acetyl(2-naphthyl) = O=C(Cc1ccc2ccccc2c1)*; Fmoc = O=C(OCC1c2ccccc2-c2ccccc21)*

Tested on: Influenza A virus
Assay: Antiviral activity against Influenza A virus (A/Puerto Rico/8/1934(H1N1)) NA-H374Y mutant infected in MDCK cells incubated for 1 hr by MTT assay
Type: functional, organism-based

Row | SMILES | pIC50
1 | CCOC(=O)c1c(CSc2ccccc2)n(C)c2cc(Br)c(O)c(CN(C)C)c12.Cl | 6.22
2 | NCCCC[C@H](NC(=O)OCC1c2ccccc2-c2ccccc21)C(=O)N[C@@H](CCCCN)C(=O)N[C@@H](Cc1c[nH]c2ccccc12)C(=O)N[C@@H](CCCCN)C(=O)NCCCC[C@H](NC(=O)[C@H](CCCCN)NC(=O)[C@H](Cc1c[nH]c2ccccc12)NC(=O)[C@H](CCCCN)NC(=O)[C@H](CCCCN)NC(=O)OCC1c2ccccc2-c2ccccc21)C(=O)NCCCC[C@H](NC(=O)[C@H](CCCCNC(=O)[C@H](CCCCN)NC(=O)[C@H](Cc1c[nH]c2ccccc12)NC(=O)[C@H](CCCCN)NC(=O)[C@H](CCCCN)NC(=O)OCC1c2ccccc2-c2ccccc21)NC(=O)[C@H](CCCCN)NC(=O)[C@H](Cc1c[nH]c2ccccc12)NC(=O)[C@H](CCCCN)NC(=O)[C@H](CCCCN)NC(=O)OCC1c2ccccc2-c2ccccc21)C(=O)NCC(=O)O (I: Fmoc-KKWKK([Lys-Trp-Lys-Lys-Fmoc])KG-OH / II: Fmoc-KKWKK([Lys-Trp-Lys-Lys-Fmoc]); amide I:6-II:C) | 6.27
3 | NCCCC[C@H](NC(=O)Cc1ccc2ccccc2c1)C(=O)N[C@@H](CCCCN)C(=O)N[C@@H](Cc1c[nH]c2ccccc12)C(=O)N[C@@H](CCCCN)C(=O)NCCCC[C@H](NC(=O)[C@H](CCCCN)NC(=O)[C@H](Cc1c[nH]c2ccccc12)NC(=O)[C@H](CCCCN)NC(=O)[C@H](CCCCN)NC(=O)Cc1ccc2ccccc2c1)C(=O)NCCCC[C@H](NC(=O)[C@H](CCCCNC(=O)[C@H](CCCCN)NC(=O)[C@H](Cc1c[nH]c2ccccc12)NC(=O)[C@H](CCCCN)NC(=O)[C@H](CCCCN)NC(=O)Cc1ccc2ccccc2c1)NC(=O)[C@H](CCCCN)NC(=O)[C@H](Cc1c[nH]c2ccccc12)NC(=O)[C@H](CCCCN)NC(=O)[C@H](CCCCN)NC(=O)Cc1ccc2ccccc2c1)C(=O)NCC(=O)O (I: {Acetyl(2-naphthyl)}-KKWKK([Lys-Trp-Lys-Lys-Acetyl(2-naphthyl)])KG-OH / II: {Acetyl(2-naphthyl)}-KKWKK([Lys-Trp-Lys-Lys-Acetyl(2-naphthyl)]); amide I:6-II:C) | 6.80
